Earlier results, collected in patent US6875451B2, “Compositions and methods for the treatment of primary and metastatic neoplastic diseases using arsenic compounds” (PolaRx Biopharmaceuticals Inc., priority 1997, dated 2005).

Test system: cell lines representative of chronic B-cell leukemia
Settings: cited from earlier work

Nc1nc(N)nc(Nc2ccc([As]3SCC(CO)S3)cc2)n1 (stereo not shown) [melarsoprol]
apoptosis: induce apoptosis
